# Measured values taken from patent US6992079B2, “Substituted 11-phenyl-dibenzazepine compounds useful for the treatment or prevention of diseases characterized by abnormal cell proliferation” (President Fellows of Harvard College, priority 1997, dated 2006).
# Marks after values point to notes of the source that are not given here.
# Assays:
# SNB-19 = experiment: In-Vitro Testing SRB panel: CNS Cancer; type: cell-based; settings: SNB-19, 48 h
# COLO 205 = experiment: In-Vitro Testing SRB panel: Colon Cancer; type: cell-based; settings: COLO 205, 48 h
# 786-0 = experiment: In-Vitro Testing SRB panel: Renal Cancer; type: cell-based; settings: 786-0, 48 h
# MC-F7 = experiment: In-Vitro Testing SRB panel: Breast Cancer; type: cell-based
# SF-539 = experiment: In-Vitro Testing SRB panel: CNS Cancer; type: cell-based; settings: SF-539, 48 h
# U251 = experiment: In-Vitro Testing SRB panel: CNS Cancer; type: cell-based
# UACC-62 = experiment: In-Vitro Testing SRB panel: Melanoma; type: cell-based; settings: UACC-62, 48 h
# TK-10 = experiment: In-Vitro Testing SRB panel: Renal Cancer; type: cell-based; settings: TK-10, 48 h
# HCT-15 = experiment: In-Vitro Testing SRB panel: Colon Cancer; type: cell-based; settings: HCT-15, 48 h
# U118MG = experiment: SRB antiproliferative assay; type: cell-based; settings: Homo sapiens, U-118-MG
# Text: (§1) The cells were passaged using Trypsin (Gibco).
# A549 = experiment: SRB antiproliferative assay; type: cell-based; settings: Homo sapiens
# Text: as §1
# MDA-MB-23 = experiment: SRB antiproliferative assay; type: cell-based; settings: Homo sapiens, MDA-MB-23
# Text: as §1
# HEPG2 = experiment: SRB antiproliferative assay; type: cell-based; settings: Homo sapiens
# Text: as §1
# HeLa = experiment: SRB antiproliferative assay; type: cell-based; settings: Homo sapiens, HeLa (Cervical), 5% FCS/5 day incubation
# Text: as §1
# MCF7 = experiment: SRB antiproliferative assay; type: cell-based; settings: Homo sapiens
# Text: as §1
# MMRU = experiment: SRB antiproliferative assay; type: cell-based; settings: Homo sapiens
# Text: as §1
# HT29 = experiment: SRB antiproliferative assay; type: cell-based; settings: Homo sapiens
# Text: as §1
# [1] = system: Ca^2+ from intracellular pools / capacitative Ca^2+ influx; experiment: Intracellular Ca2+ release and capacitative Ca2+ influx; type: cell-based; settings: in vitro
# OVCAR-3 = experiment: In-Vitro Testing SRB panel: Ovarian Cancer
# [2] = Preliminary toxicology, subcutaneous injection for 14 days; type: in vivo, CD-1 female mice; settings: CD-1 female mice; 80 mg/kg/day s.c. 14 days
# Protocol: The toxicological effects of CLT, and compounds 28, 30 and 31 were tested in CD-1 female mice. A dose of 80 mg/kg/day was given to each mouse via subcutaneous injection for a period of 14 days. Preliminary toxicological data was determined by measuring body weight, gross pathology of organs blood chemistry and histology. The vehicle used was DMF 12%+2% Tween 20 88%.
# [3] = Homo sapiens, read-out: LC50 (the source's name)
smiles,measurement,setting,value
"O=C(c1ccc([N+](=O)[O-])cc1)N1Cc2ccccc2C(c2ccccc2Cl)c2ccccc21 (stereo not shown) [Compound 28, N-(4′-Nitrobenzoyl)-11-(2′-chlorophenyl)-5,6-dihydro-11H-dibenz[b,e]azepine]",GI50,SNB-19; Homo sapiens,3270 nM
same,CC50,SNB-19; [3],> 100000 nM
same,TGI,SNB-19,>1.00E−04 Molar
same,Percent Growth,SNB-19; log10 conc −4.0 Molar,32%
same,Percent Growth,SNB-19; log10 conc −5.0 Molar,44%
same,Percent Growth,SNB-19; log10 conc −6.0 Molar,56%
same,Percent Growth,SNB-19; log10 conc −7.0 Molar,95%
same,Percent Growth,SNB-19; log10 conc −8.0 Molar,99%
same,TGI,COLO 205,1.41E−05 Molar
same,Percent Growth,COLO 205; log10 conc −4.0 Molar,−60%
same,Percent Growth,COLO 205; log10 conc −5.0 Molar,10%
same,Percent Growth,COLO 205; log10 conc −6.0 Molar,40%
same,Percent Growth,COLO 205; log10 conc −7.0 Molar,77%
same,Percent Growth,COLO 205; log10 conc −8.0 Molar,79%
same,GI50,COLO 205; Homo sapiens,845 nM
same,CC50,COLO 205; [3],> 72500 nM
same,TGI,786-0,>1.00E−04 Molar
same,Percent Growth,786-0; log10 conc −4.0 Molar,27%
same,Percent Growth,786-0; log10 conc −5.0 Molar,31%
same,Percent Growth,786-0; log10 conc −6.0 Molar,51%
same,Percent Growth,786-0; log10 conc −7.0 Molar,102%
same,Percent Growth,786-0; log10 conc −8.0 Molar,100%
same,GI50,786-0; Homo sapiens,1160 nM
same,CC50,786-0; [3],> 100000 nM
same,GI50,"MC-F7; Homo sapiens, MCF7, 48 h",872 nM
same,CC50,"MC-F7; Homo sapiens, MCF7, MC-F7, 48 h, read-out: LC50 (the source's name)",> 100000 nM
same,TGI,"MC-F7; MC-F7, 48 h",>1.00E−04 Molar
same,Percent Growth,"MC-F7; MC-F7, log10 conc −4.0 Molar, 48 h",8%
same,Percent Growth,"MC-F7; MC-F7, log10 conc −5.0 Molar, 48 h",21%
same,Percent Growth,"MC-F7; MC-F7, log10 conc −6.0 Molar, 48 h",48%
same,Percent Growth,"MC-F7; MC-F7, log10 conc −7.0 Molar, 48 h",88%
same,Percent Growth,"MC-F7; MC-F7, log10 conc −8.0 Molar, 48 h",97%
same,GI50,SF-539; Homo sapiens,25600 nM
same,CC50,SF-539; [3],> 100000 nM
same,TGI,SF-539,>1.00E−04 Molar
same,Percent Growth,SF-539; log10 conc −4.0 Molar,35%
same,Percent Growth,SF-539; log10 conc −5.0 Molar,61%
same,Percent Growth,SF-539; log10 conc −6.0 Molar,86%
same,Percent Growth,SF-539; log10 conc −7.0 Molar,107%
same,Percent Growth,SF-539; log10 conc −8.0 Molar,82%
same,GI50,"U251; Homo sapiens, U-251, 48 h",476 nM
same,CC50,"U251; Homo sapiens, U-251, U251, 48 h, read-out: LC50 (the source's name)",> 100000 nM
same,TGI,"U251; U251, 48 h",>1.00E−04 Molar
same,Percent Growth,"U251; U251, log10 conc −4.0 Molar, 48 h",8%
same,Percent Growth,"U251; U251, log10 conc −5.0 Molar, 48 h",9%
same,Percent Growth,"U251; U251, log10 conc −6.0 Molar, 48 h",28%
same,Percent Growth,"U251; U251, log10 conc −7.0 Molar, 48 h",94%
same,Percent Growth,"U251; U251, log10 conc −8.0 Molar, 48 h",104%
same,GI50,UACC-62; Homo sapiens,363 nM
same,CC50,UACC-62; [3],> 100000 nM
same,Percent Growth,UACC-62; log10 conc −4.0 Molar,0%
same,Percent Growth,UACC-62; log10 conc −5.0 Molar,22%
same,Percent Growth,UACC-62; log10 conc −6.0 Molar,45%
same,Percent Growth,UACC-62; log10 conc −7.0 Molar,57%
same,Percent Growth,UACC-62; log10 conc −8.0 Molar,82%
same,GI50,TK-10; Homo sapiens,51300 nM
same,CC50,TK-10; [3],> 100000 nM
same,TGI,TK-10,>1.00E−04 Molar
same,Percent Growth,TK-10; log10 conc −4.0 Molar,48%
same,Percent Growth,TK-10; log10 conc −5.0 Molar,54%
same,Percent Growth,TK-10; log10 conc −6.0 Molar,76%
same,Percent Growth,TK-10; log10 conc −7.0 Molar,93%
same,Percent Growth,TK-10; log10 conc −8.0 Molar,102%
same,TGI,HCT-15,>1.00E−04 Molar
same,Percent Growth,HCT-15; log10 conc −4.0 Molar,29%
same,Percent Growth,HCT-15; log10 conc −5.0 Molar,28%
same,Percent Growth,HCT-15; log10 conc −6.0 Molar,40%
same,Percent Growth,HCT-15; log10 conc −7.0 Molar,86%
same,Percent Growth,HCT-15; log10 conc −8.0 Molar,99%
same,GI50,HCT-15; Homo sapiens,608 nM
same,CC50,HCT-15; [3],> 100000 nM
same,IC50,"U118MG; U118MG (CNS), 5% FCS/5 day incubation",500 nM
same,IC50,"U118MG; U118MG, 5% FCS/3 days",1300 nM
same,IC50,"A549; A549, A549 (Lung), 5% FCS/5 day incubation",800 nM
same,IC50,"A549; A549, A549, 5% FCS/3 days",1800 nM
same,IC50,MDA-MB-23,500 nM
same,IC50,"HEPG2; HepG2, HEPG2 (Hepatocel), 5% FCS/5 day incubation",300 nM
same,IC50,"HEPG2; HepG2, HEPG2, 5% FCS/3 days",< 1250 nM
same,IC50,HeLa,300 nM
same,IC50,"MCF7; MCF7, MCF7 (Breast), 5% FCS/5 day incubation",600 nM
same,IC50,"MCF7; MCF7, MCF7, 5% FCS/3 days",2100 nM
same,IC50,"MMRU; MMRU (Melanoma), 5% FCS/5 day incubation",200 nM
same,IC50,"MMRU; MMRU, 5% FCS/3 days",< 1250 nM
same,IC50,"HT29; HT-29, HT29 (Colon), 5% FCS/5 day incubation",300 nM
same,IC50,"HT29; HT-29, HT29, 5% FCS/3 days",< 1250 nM
same,Ca^2+ release from intracellular pools,[1],releases Ca^2+ from intracellular pools
same,capacitative Ca^2+ influx into the cell,[1],inhibits capacitative Ca^2+ influx
same,GI50,"OVCAR-3; Homo sapiens, OVCAR-3, 48 h",5250 nM
same,CC50,"OVCAR-3; Homo sapiens, OVCAR-3, 48 h, read-out: LC50",> 100000 nM
same,TGI,"OVCAR-3; OVCAR-3, 48 h",>1.00E−04 Molar
same,Percent Growth,"OVCAR-3; OVCAR-3, log10 conc −4.0 Molar, 48 h",31%
same,Percent Growth,"OVCAR-3; OVCAR-3, log10 conc −5.0 Molar, 48 h",44%
same,Percent Growth,"OVCAR-3; OVCAR-3, log10 conc −6.0 Molar, 48 h",64%
same,Percent Growth,"OVCAR-3; OVCAR-3, log10 conc −7.0 Molar, 48 h",95%
same,Percent Growth,"OVCAR-3; OVCAR-3, log10 conc −8.0 Molar, 48 h",89%
same,Body Weight Change,[2],107%
same,Liver Weight,[2],1.51 ± 0.08^c g
same,RBC,[2],8.1 ± 0.6 10^6/mm^3
same,WBC,[2],7.5 ± 0.8 10^3/mm^3
same,"WBC, RBC, BUN and creatine levels",[2],no differences were found
